Assay results: ChEMBL document CHEMBL3430912, “GSK Tres Cantos Anti-Kinetoplastid Screening (TCAKS) Data”

Legend:
[1] = GSK_TCAKS: pIC50 HepG2 human cell line viability assay using luminiscence. […] Seeding density was checked to ensure that new mono-layers were not more than 50% confluent at the time of harvesting. Cell suspension was added to 500 mL of the same medium at a final density of 1.2 * 10^5 cells/mL. This cell suspension was dispensed (25 uL, 3000 cells per well) into 384-well clear-bottom plates using a Multidrop Combi dispenser. Prior to addition of the cell suspension, the screening compounds (250 nL) were pre-dispensed into the plates with an Echo liquid handler. Plates were incubated for 48 h at 37C, 5% CO2. After incubation, plates equilibrated at room temperature for 30 min before proceeding to develop the luminescent signal. The signal developer, CellTiter-Glo Reagent, was allowed to equilibrate at room temperature for 30 min and added to the plates (25uL per well) using a Multidrop Combi dispenser. Plates were left for 10 min at room temperature for stabilization and then read using a ViewLux.; assay type: toxicity, cell-based
[2] = biological target: Sterol 14-alpha demethylase (Trypanosoma cruzi (strain CL Brener), UniProt Q7Z1V1); experiment: GSK_TCAKS: pIC50 CYP51 from Trypanosoma cruzi.; assay type: functional
[3] = tested on: Trypanosoma brucei brucei; experiment: GSK_TCAKS: pIC50 Trypanosoma brucei viability assay using fluorescence intensity. Assay plates (1536-well) were prepared by dispensing 25nL of compound solution per well using an Echo acoustic dispenser (Labcyte).; assay type: functional, organism-based; settings: Lister 427, 2 h
Trypanosoma cruzi [4] = experiment: (§1) GSK_TCAKS: pIC50 H2C9 Imaging: H9c2 Host Cardiomyocytes. […] Cells were then washed once with PBS before infection. T. cruzi trypomastigotes, collected at days 5 to 8 after infection from LLC-MK2 parasite infected cultures, were allowed to swim out for 4h at 37C from a centrifuged pellet (2,500 rpm/10 min/room temperature). Trypomastigotes were then collected and counted in a CASY Cell Counter. Trypomastigotes, in supplemented DMEM, were added to H9c2 cultures in a multiplicity of infection of 1 and incubated for 18 h. Cells were washed once with PBS before incubation of the infected H9c2 monolayer with trypsin (Life-Technologies) to detach cells from the flask. Cells were counted in a CASY Cell Counter using a 150 um capillary and their density set at 5 * 10^4 cells per mL in supplemented assay DMEM. Infected H9c2 were dispensed into 384-well poly-lysine coated assay plates at 50uL per well using a Multidrop Combi dispenser. After seeding them, the plates were incubated at 37C, 5% CO2 for 72h. Cultures were then fixed and stained by addition of 50 uL of a solution containing 8% formaldehyde and 4 uM DRAQ5 DNA dye (BioStatus, UK) per well. […] Five images were collected per well for reliable statistical analysis. Automated image analysis was performed with a script developed on Acapella High Content Imaging and Analysis Software (PerkinElmer). Output: Number of H9c2 Host Cardiomyocytes nuclei to determine drug-related cytotoxicity.; assay type: functional, organism-based, Rattus norvegicus; settings: H9c2, 4 h
Trypanosoma cruzi [5] = experiment: as §1, with “Trypanosoma cruzi” for “H2C9”, “Infected Cells.” for “H9c2 Host Cardiomyocytes.”, “percentage” for “Number”, “infected cells per well as a second infection marker.” for “H9c2 Host Cardiomyocytes nuclei to determine drug-related cytotoxicity.”; assay type: functional, organism-based, Rattus norvegicus; settings: H9c2, 4 h
Trypanosoma cruzi [6] = experiment: as §1, with “Trypanosoma cruzi” for “H2C9”, “Amastigotes/Cell.” for “H9c2 Host Cardiomyocytes.”, “number” for “Number”, “amastigotes per cell as infection level measurement.” for “H9c2 Host Cardiomyocytes nuclei to determine drug-related cytotoxicity.”; assay type: functional, organism-based, Rattus norvegicus; settings: H9c2, 4 h
[7] = tested on: Trypanosoma brucei brucei; experiment: GSK_TCAKS: pIC50 Trypanosoma brucei viability assay using luminiscence. Assay plates (1536-well) were prepared. T. brucei cultures were harvested and counted in a CASY cell counter. A parasite suspension was prepared at a final concentration of 5 * 10^4 cells/mL in complete HMI9 medium and 6uL was dispensed to all wells containing compounds using a Multidrop Combi dispenser. 6uL of HMI9 media with 0.4% DMSO were dispensed to control columns. Plates were incubated for 24 h at 37C, 5% CO2 then tempered for 10 min at room temperature. ATP content was quantified by adding 4 uL of CellTiter-Glo Reagent (Promega) according to the manufacturer's instructions. Luminescence was measured using a ViewLux.; assay type: functional, organism-based; settings: Lister 427, CASY
Leishmania donovani [8] = experiment: GSK_TCAKS: pIC50 Leishmania donovani Imaging: Infected Macrophages. Assay plates (384-well) were prepared by adding 250nL of compound to each well. For single shot assay, the final compound concentration was 5 uM. […] Automated image analysis was performed with a script developed on Acapella High Content Imaging and Analysis Software (PerkinElmer). Output: Percent of infected macrophage cells were reported for each well.; assay type: functional, organism-based, Homo sapiens; settings: THP-1
Leishmania donovani [9] = experiment: GSK_TCAKS: pIC50 Leishmania donovani viability assay using fluorescence intensity. Assay plates (1536-well) were prepared by adding 30nL per well of compound. For single shot assay, the final compound concentration was 5uM. […] Briefly, eGFP LdBOB axenic amastigotes were harvested, fixed and counted in a CASY cell counter (Roche-Applied Science). A final concentration of 1.5 * 10^5 cells per well were prepared in amastigote media containing 500 U/mL penicillin/streptomycin (Invitrogen) and 6uL was dispensed to each experimental well using a Multidrop Combi dispenser (Thermo Scientific). 6uL of assay media was dispensed to control columns used as reference for 100% compound response. Following incubation for 72 h at 37C, 5% CO2, 2 uL of resazurin was added to each well at a final concentration of 0.5 mM in phosphate buffered saline (PBS) with IGEPAL (Sigma-Aldrich), 0.05% (v/v).; assay type: functional, organism-based
Trypanosoma cruzi [10] = experiment: GSK_TCAKS: pIC50 Trypanosoma cruzi viability assay using beta-GAL activity. This assay was run at single shot at 5uM compound concentration per well. The biological reagents consisted of NIH-3T3 host cells and trypomastigotes parasitic cells; both cell types were set to a 3.3 * 10^5 cells/mL dilution in assay DMEM by means of a CASY cell counter device using a 60um capillary. 6 uL of the mixture were dispensed per well (about 1 * 10^3 host-cells and 1 * 10^3 parasites) with a Multidrop Combi dispenser. […] In all wells, the percentage of DMSO never exceeded 0.5%. Plates incubated for four days at 37C, 5% CO2. The substrate used for the assay fluorescence intensity (FLINT) readout was resorufin-beta-D-galactopiranoside (Sigma-Aldrich) at 5uM per well. It was diluted in PBS supplemented with the soft detergent Igepal (Fluka).; assay type: functional, organism-based, Mus musculus; settings: Tulahuen, NIH3T3
Leishmania donovani [11] = experiment: GSK_TCAKS: pIC50 Leishmania donovani Imaging: Amastigotes/Macrophages. Assay plates (384-well) were prepared by adding 250nL of compound to each well. For single shot assay, the final compound concentration was 5 uM. […] Automated image analysis was performed with a script developed on Acapella High Content Imaging and Analysis Software (PerkinElmer). Output: Average number of amastigotes per macrophage cell were reported for each well.; assay type: functional, organism-based, Homo sapiens; settings: THP-1
Leishmania donovani [12] = experiment: GSK_TCAKS: pIC50 Leishmania donovani Imaging: THP-1 Host Macrophages. Assay plates (384-well) were prepared by adding 250nL of compound to each well. For single shot assay, the final compound concentration was 5 uM. […] Automated image analysis was performed with a script developed on Acapella High Content Imaging and Analysis Software (PerkinElmer). Output: THP-1 cell count were reported for each well.; assay type: functional, organism-based, Homo sapiens
NIH3T3 = experiment: GSK_TCAKS: pIC50 NIH 3T3 cell line viability assay using luminiscence. Tissue culture surface treated assay plates (1536-well) were used. […] The 100% cells survival control was determined exposing the host-cells to a 0.5% DMSO concentration, whereas the 100% toxicity control was achieved by seeding the cells in presence of Amphotericin B at 50uM. Plates were incubated for four days at 37C, 5% CO2. The assay readout was developed by addition of 5uL of CellTiter-Glo Reagent following the manufacturer's instructions. Luminiscence was measured using a ViewLux.; assay type: functional, cell-based; settings: Mus musculus, NIH3T3, 96 h

Sterol 14-alpha demethylase, sequence (Q7Z1V1 whole entry): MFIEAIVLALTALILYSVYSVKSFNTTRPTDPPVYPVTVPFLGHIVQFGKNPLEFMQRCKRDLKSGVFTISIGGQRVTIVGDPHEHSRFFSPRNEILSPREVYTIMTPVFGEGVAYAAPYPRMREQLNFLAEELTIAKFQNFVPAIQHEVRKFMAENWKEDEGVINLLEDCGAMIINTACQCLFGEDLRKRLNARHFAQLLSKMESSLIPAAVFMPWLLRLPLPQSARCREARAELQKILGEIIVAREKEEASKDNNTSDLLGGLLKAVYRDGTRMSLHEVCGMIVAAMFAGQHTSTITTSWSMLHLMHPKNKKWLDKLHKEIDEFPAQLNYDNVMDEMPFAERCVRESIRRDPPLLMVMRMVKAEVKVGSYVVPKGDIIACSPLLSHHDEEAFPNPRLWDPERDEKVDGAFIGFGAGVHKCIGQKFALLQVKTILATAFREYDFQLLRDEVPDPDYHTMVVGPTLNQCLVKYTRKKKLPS

| SMILES | IC50 at 48 h [1] [µM] | IC50 [2] [µM] | IC50 [3] [µM] | IC50 (Trypanosoma cruzi [4]) [µM] | IC50 (Trypanosoma cruzi [5]) [µM] | IC50 (Trypanosoma cruzi [6]) [µM] | IC50 [7] [µM] | IC50 (Leishmania donovani [8]) [µM] | IC50 (Leishmania donovani [9]) [µM] | IC50 (Trypanosoma cruzi [10]) [µM] | IC50 (Leishmania donovani [11]) [µM] | IC50 (Leishmania donovani [12]) [µM] | IC50 (NIH3T3) [µM] |
| --- | --- | --- | --- | --- | --- | --- | --- | --- | --- | --- | --- | --- | --- |
| CS(=O)(=O)c1ccc(CC(=O)Nc2nc(-c3ccc(Cl)s3)cs2)cc1 | > 100 | > 100 | 10 | 15.8 | 0.316 | 0.398 | > 39.8 | > 50.1 | > 50.1 | 0.398 | > 50.1 | 15.8 | > 50.1 |
| CN(Cc1cc2ccccc2s1)c1ncc2c(N)nc(N)nc2n1 | 39.8 | > 100 | 31.6 | 20 | 3.16 | 0.794 | 25.1 | 31.6 | 31.6 | 2 | 25.1 | 25.1 | 25.1 |
| Clc1ccc(OCCN2CCCCC2c2cccnc2)c(Cl)c1 (stereo not given) | 79.4 | 0.0631 | 31.6 | > 50.1 | 0.2 | 0.158 | > 39.8 | > 50.1 | 5.01 | 0.398 | 5.01 | > 50.1 | 25.1 |
| O=C(NCCNc1noc(-c2ccc([N+](=O)[O-])cc2)n1)c1ccc(Cl)cc1 | > 100 | > 100 | 3.16 | > 50.1 | > 50.1 | 1.26 | > 39.8 | > 50.1 | > 50.1 | 2 | > 50.1 | 15.8 | > 50.1 |
| CN(Cc1cccnc1)Cc1ccc(N2CCN(C(=O)C3(c4ccc(Cl)cc4)CC3)CC2)nc1 | > 100 | 0.158 | 31.6 | > 50.1 | 1.58 | 1.26 | 25.1 | > 50.1 | 31.6 | 0.501 | > 50.1 | 10 | 7.94 |
| COc1ccc(S(=O)(=O)NC(C)C)cc1Nc1ncc(-c2cccc(F)c2)cn1 | > 100 | > 100 | 20 | > 50.1 | 0.398 | 0.316 | > 39.8 | > 50.1 | 6.31 | 0.631 | > 50.1 | > 50.1 | 5.01 |
| O=C(NCCc1ccccc1Cl)c1cccn1-c1cccnc1 | > 100 | 0.0794 | 31.6 | > 50.1 | 0.501 | 0.501 | > 39.8 | > 50.1 | 6.31 | 0.398 | > 50.1 | > 50.1 | 31.6 |
| COc1ccc(S(=O)(=O)Nc2ccccc2OC)cc1NC(=O)CCCc1c[nH]c2ccccc12 | > 100 | > 100 | 12.6 | > 50.1 | 1.26 | 1 | 31.6 | > 50.1 | 25.1 | 1.58 | > 50.1 | > 50.1 | > 50.1 |
| Cc1nn(C2CCS(=O)(=O)C2)c(C)c1CN(C)C(=O)C=Cc1sc2ccccc2c1Cl (stereo not given) | > 100 | 0.0316 | 10 | > 50.1 | 0.501 | 0.316 | 25.1 | 39.8 | 12.6 | 0.631 | 12.6 | 20 | > 50.1 |
| COc1ccc2c(Cl)c(C(=O)N3CCC3)sc2c1Cl | > 100 | > 100 | 20 | > 50.1 | 2.51 | 0.794 | > 39.8 | > 50.1 | > 50.1 | 0.447 | > 50.1 | > 50.1 | > 50.1 |
